Measurements as given in ChEMBL document CHEMBL1687860, “Ring B aromatic norpimarane glucoside from a Xylaria sp” (J Nat Prod, 2011).

Assays:
KB = assay: Cytotoxicity against human KB cells by resazurin microplate assay; format: functional, cell-based
MCF7 = assay: Cytotoxicity against human MCF7 cells by resazurin microplate assay; format: functional, cell-based
NCI-H187 = assay: Cytotoxicity against human NCI-H187 by resazurin microplate assay; format: functional, cell-based
Vero = assay: Cytotoxicity against african green monkey Vero cells by green fluorescent protein microplate assay; format: cell-based; conditions: Chlorocebus sabaeus

With C=C[C@@]1(C)CCc2c3c(c(O)c(O[C@H]4O[C@H](CO)[C@@H](O)[C@H](O)[C@H]4O)c2[C@H]1O)C(C)(C)CCC3 [XYLOPIMARANE] the IC50 (KB) was 1 µM, the IC50 (MCF7) was 13 µM and the IC50 (NCI-H187) was 65 µM. The IC50 (Vero) was 41 µM.
